Tested on: MV-4-11 cells
Assay: Gene expression microarray analysis (Affymetrix PrimeView) and GSEA
Format: cell-based, human
Set-up: RFU PODN (11730768_x_at) / Fold change /veh PODN (11730768_x_at) / RFU LINC00158 (11744669_a_at) / Fold change /veh LINC00158 (11744669_a_at) / RFU DUSP10 (11751237_a_at) / Fold change /veh DUSP10 (11751237_a_at) / RFU ID3 (11757404_x_at) / Fold change /veh ID3 (11757404_x_at) / RFU PLEKHG5 (11737974_s_at) / Fold change /veh PLEKHG5 (11737974_s_at) / RFU LRRC4B (11730491_at) / Fold change /veh LRRC4B (11730491_at) / RFU GIMAP4 (11747438_a_at) / Fold change /veh GIMAP4 (11747438_a_at) / RFU KRT8 (11758183_x_at) / Fold change /veh KRT8 (11758183_x_at) / RFU CNN1 (11734310_a_at) / Fold change /veh CNN1 (11734310_a_at) / RFU VPS37D (11726825_at) / Fold change /veh VPS37D (11726825_at) / RFU C10orf10 (11716522_x_at) / Fold change /veh C10orf10 (11716522_x_at) / RFU KIR2DL2 /// KIR2DL4 /// KIR2DL5A /// KIR2DL5B /// KIR2DS1 /// KIR2DS2 /// KIR2DS3 /// KIR2DS4 /// KIR3DL3 /// KIR3DL3 /// KIR3DS1 (11738374_at) / Fold change /veh KIR2DL2 /// KIR2DL4 /// KIR2DL5A /// KIR2DL5B /// KIR2DS1 /// KIR2DS2 /// KIR2DS3 /// KIR2DS4 /// KIR3DL3 /// KIR3DL3 /// KIR3DS1 (11738374_at) / RFU C1QL1 (11718748_at) / Fold change /veh C1QL1 (11718748_at) / RFU TMPRSS4 (11747572_a_at) / Fold change /veh TMPRSS4 (11747572_a_at) / RFU HAMP (11756126_x_at) / Fold change /veh HAMP (11756126_x_at) / RFU RNFT2 (11725882_a_at) / Fold change /veh RNFT2 (11725882_a_at) / RFU NR4A2 (11747474_a_at) / Fold change /veh NR4A2 (11747474_a_at) / RFU ABCC12 (11746883_a_at) / Fold change /veh ABCC12 (11746883_a_at) / RFU TMEM136 (11760407_x_at) / Fold change /veh TMEM136 (11760407_x_at) / RFU CLDN22 /// WWC2 (11732394_at) / Fold change /veh CLDN22 /// WWC2 (11732394_at) / RFU HLA-DPB1 (11760878_x_at) / Fold change /veh HLA-DPB1 (11760878_x_at) / RFU SPINT1 (11716480_a_at) / Fold change /veh SPINT1 (11716480_a_at) / RFU GAP43 (11754022_s_at) / Fold change /veh GAP43 (11754022_s_at) / RFU A4GNT (11735810_at) / Fold change /veh A4GNT (11735810_at) / RFU PRB3 (11715151_x_at) / Fold change /veh PRB3 (11715151_x_at) / RFU TUBB4B (11761932_at) / Fold change /veh TUBB4B (11761932_at) / RFU CAPN14 (11732068_a_at) / Fold change /veh CAPN14 (11732068_a_at) / RFU TMCC2 (11721928_a_at) / Fold change /veh TMCC2 (11721928_a_at) / RFU IRGQ (11745062_a_at) / Fold change /veh IRGQ (11745062_a_at) / RFU FAM174B (11720279_a_at) / Fold change /veh FAM174B (11720279_a_at) / RFU TMPRSS4 (11748680_a_at) / Fold change /veh TMPRSS4 (11748680_a_at) / RFU FAM212B (11763350_a_at) / Fold change /veh FAM212B (11763350_a_at) / RFU PLEKHG5 (11743358_a_at) / Fold change /veh PLEKHG5 (11743358_a_at) / RFU ZSCAN30 (11745921_a_at) / Fold change /veh ZSCAN30 (11745921_a_at) / RFU CMKLR1 (11741424_a_at) / Fold change /veh CMKLR1 (11741424_a_at) / RFU LOC101060620 /// MAPK8IP1 (11723275_at) / Fold change /veh LOC101060620 /// MAPK8IP1 (11723275_at) / RFU SPTSSB (11747773_x_at) / Fold change /veh SPTSSB (11747773_x_at) / RFU PRSS12 (11739890_at) / Fold change /veh PRSS12 (11739890_at) / RFU BIN1 (11741810_x_at) / Fold change /veh BIN1 (11741810_x_at) / RFU WNT11 (11732464_a_at) / Fold change /veh WNT11 (11732464_a_at) / RFU C10orf10 (11716521_a_at) / Fold change /veh C10orf10 (11716521_a_at) / RFU C5orf56 (11738089_at) / Fold change /veh C5orf56 (11738089_at) / RFU CYB561 (11721691_x_at) / Fold change /veh CYB561 (11721691_x_at) / RFU ANKRD19P (11752326_a_at) / Fold change /veh ANKRD19P (11752326_a_at) / RFU OR2T12 /// OR2T33 /// OR2T8 (11738714_s_at) / Fold change /veh OR2T12 /// OR2T33 /// OR2T8 (11738714_s_at) / RFU VCAN (11748164_a_at) / Fold change /veh VCAN (11748164_a_at) / RFU JSRP1 (11732532_at) / Fold change /veh JSRP1 (11732532_at) / RFU KRTAP10-11 (11738290_x_at) / Fold change /veh KRTAP10-11 (11738290_x_at) / RFU MYO3A (11730013_a_at) / Fold change /veh MYO3A (11730013_a_at) / RFU EBF3 (11725865_a_at) / Fold change /veh EBF3 (11725865_a_at) / RFU CAMK2N1 (11719241_x_at) / Fold change /veh CAMK2N1 (11719241_x_at) / RFU C5orf56 (11738088_a_at) / Fold change /veh C5orf56 (11738088_a_at) / RFU OLFML3 (11715873_a_at) / Fold change /veh OLFML3 (11715873_a_at) / RFU LOC100653217 /// NTM (11731650_a_at) / Fold change /veh LOC100653217 /// NTM (11731650_a_at) / RFU MAPK11 (11762145_a_at) / Fold change /veh MAPK11 (11762145_a_at) / RFU FIZ1 (11724087_x_at) / Fold change /veh FIZ1 (11724087_x_at) / RFU OASL (11726364_x_at) / Fold change /veh OASL (11726364_x_at) / RFU SOX15 (11748057_x_at) / Fold change /veh SOX15 (11748057_x_at) / RFU CD79A (11719716_a_at) / Fold change /veh CD79A (11719716_a_at) / RFU HIST1H1D (11736915_at) / Fold change /veh HIST1H1D (11736915_at) / RFU CASKIN2 (11723855_a_at) / Fold change /veh CASKIN2 (11723855_a_at) / RFU LOC730098 (11760151_x_at) / Fold change /veh LOC730098 (11760151_x_at) / RFU OR4N2 (11742367_at) / Fold change /veh OR4N2 (11742367_at) / RFU PRRT2 (11749266_a_at) / Fold change /veh PRRT2 (11749266_a_at) / RFU SNX32 (11753110_a_at) / Fold change /veh SNX32 (11753110_a_at) / RFU CDHR5 (11726645_a_at) / Fold change /veh CDHR5 (11726645_a_at) / RFU RCAN1 (11760418_a_at) / Fold change /veh RCAN1 (11760418_a_at) / RFU FAM167A (11723789_a_at) / Fold change /veh FAM167A (11723789_a_at) / RFU FAM26E (11764081_at) / Fold change /veh FAM26E (11764081_at) / RFU ISYNA1 (11749810_s_at) / Fold change /veh ISYNA1 (11749810_s_at) / RFU ACY1 (11761880_at) / Fold change /veh ACY1 (11761880_at) / RFU 11764098_at / Fold change /veh 11764098_at / RFU SAMD14 (11745864_x_at) / Fold change /veh SAMD14 (11745864_x_at) / RFU NPB (11741838_a_at) / Fold change /veh NPB (11741838_a_at) / RFU TMPRSS6 (11731388_a_at) / Fold change /veh TMPRSS6 (11731388_a_at) / RFU KRTAP10-2 (11738614_at) / Fold change /veh KRTAP10-2 (11738614_at) / RFU ARHGAP8 /// PRR5-ARHGAP8 (11727945_x_at) / Fold change /veh ARHGAP8 /// PRR5-ARHGAP8 (11727945_x_at) / RFU KRTAP5-7 /// NADSYN1 (11734609_at) / Fold change /veh KRTAP5-7 /// NADSYN1 (11734609_at) / RFU RASL12 (11751679_a_at) / Fold change /veh RASL12 (11751679_a_at) / RFU CDKN2B (11736163_a_at) / Fold change /veh CDKN2B (11736163_a_at) / RFU PRF1 (11729649_at) / Fold change /veh PRF1 (11729649_at) / RFU, ZNF638 /// ZNF638-IT1 / Fold change vs veh, ZNF638 /// ZNF638-IT1 / RFU, PANK3 / Fold change vs veh, PANK3 / RFU, SH3YL1 / Fold change vs veh, SH3YL1 / RFU, ZEB2 / Fold change vs veh, ZEB2 / RFU, NRIP1 / Fold change vs veh, NRIP1 / RFU, PTTG1IP / Fold change vs veh, PTTG1IP / RFU, CAPN2 / Fold change vs veh, CAPN2 / RFU, MED14 / Fold change vs veh, MED14 / RFU, SNORA58 / Fold change vs veh, SNORA58 / RFU, C1orf63 / Fold change vs veh, C1orf63 / RFU, LRRFIP1 / Fold change vs veh, LRRFIP1 / RFU, NDUFAF7 / Fold change vs veh, NDUFAF7 / RFU, SLC12A2 / Fold change vs veh, SLC12A2 / RFU, IBTK / Fold change vs veh, IBTK / RFU, ESF1 / Fold change vs veh, ESF1 / Fold change vs veh, TMEM50B / RFU, TAOK1 / Fold change vs veh, TAOK1 / RFU, ACBD3 / Fold change vs veh, ACBD3 / RFU, TMA16 / Fold change vs veh, TMA16 / RFU, RWDD3 / Fold change vs veh, RWDD3 / RFU, BCAT1 / Fold change vs veh, BCAT1 / RFU, EDEM3 / Fold change vs veh, EDEM3 / RFU, TMEM33 / Fold change vs veh, TMEM33 / RFU, WDR75 / Fold change vs veh, WDR75 / RFU, AHCTF1 / Fold change vs veh, AHCTF1 / RFU, TFRC / Fold change vs veh, TFRC / RFU, ZDHHC17 / Fold change vs veh, ZDHHC17 / RFU, NOM1 / Fold change vs veh, NOM1 / RFU, ARL8B / Fold change vs veh, ARL8B / RFU, ZBTB11 / Fold change vs veh, ZBTB11 / RFU, TAMM41 / Fold change vs veh, TAMM41 / RFU, KIAA1704 /// LOC100996395 / Fold change vs veh, KIAA1704 /// LOC100996395 / RFU, ING1 / Fold change vs veh, ING1 / RFU, TRMT61B / Fold change vs veh, TRMT61B / RFU, FUBP3 / Fold change vs veh, FUBP3 / RFU, TP53 / Fold change vs veh, TP53 / RFU, TNKS2 / Fold change vs veh, TNKS2 / RFU, ZFP14 / Fold change vs veh, ZFP14 / RFU, ACTR2 / Fold change vs veh, ACTR2 / RFU, PPP3R1 / Fold change vs veh, PPP3R1 / RFU, PIK3R1 / Fold change vs veh, PIK3R1 / RFU, HNRNPA1 / Fold change vs veh, HNRNPA1 / RFU, RNF170 / Fold change vs veh, RNF170 / RFU, ZNF28 / Fold change vs veh, ZNF28 / RFU, RNGTT / Fold change vs veh, RNGTT / RFU, OGT / Fold change vs veh, OGT / RFU, BRD1 / Fold change vs veh, BRD1 / RFU, MARS / Fold change vs veh, MARS / RFU, ZNF655 / Fold change vs veh, ZNF655 / RFU, FAHD1 / Fold change vs veh, FAHD1 / RFU, BDP1 / Fold change vs veh, BDP1 / RFU, LRRCC1 / Fold change vs veh, LRRCC1 / RFU, ARID1A / Fold change vs veh, ARID1A / RFU, ZNF146 / Fold change vs veh, ZNF146 / RFU, ZNF330 / Fold change vs veh, ZNF330 / RFU, GPN3 / Fold change vs veh, GPN3 / RFU, C9orf123 / Fold change vs veh, C9orf123 / RFU, N4BP2L2 / Fold change vs veh, N4BP2L2 / RFU, ARFIP1 / Fold change vs veh, ARFIP1 / RFU, FAM179B / Fold change vs veh, FAM179B / RFU, BCL10 / Fold change vs veh, BCL10 / RFU, UHRF1BP1L / Fold change vs veh, UHRF1BP1L / RFU, BET1 / Fold change vs veh, BET1 / RFU, CNOT2 / Fold change vs veh, CNOT2 / RFU, ZNF268 / Fold change vs veh, ZNF268 / Fold change vs veh, ZNF507 / RFU, DGCR2 / Fold change vs veh, DGCR2 / RFU, WDSUB1 / Fold change vs veh, WDSUB1 / Fold change vs veh, HSP90B1 /// MIR3652 / RFU, ADSS / Fold change vs veh, ADSS / RFU, GK / Fold change vs veh, GK / RFU, ZNF148 / Fold change vs veh, ZNF148 / RFU, TAF9 / Fold change vs veh, TAF9 / RFU, SLC1A5 / Fold change vs veh, SLC1A5 / RFU, SLMO2 / Fold change vs veh, SLMO2 / RFU, ABCC4 / Fold change vs veh, ABCC4 / RFU, LOC101060439 /// RAP1B / Fold change vs veh, LOC101060439 /// RAP1B / RFU, RFX7 / Fold change vs veh, RFX7 / RFU, GTPBP10 / Fold change vs veh, GTPBP10 / RFU, CNEP1R1 / Fold change vs veh, CNEP1R1 / RFU, BIVM-ERCC5 /// ERCC5 / Fold change vs veh, BIVM-ERCC5 /// ERCC5 / RFU, ILF3 / Fold change vs veh, ILF3 / RFU 11762660_at / Fold change /veh 11762660_at / RFU VCAN (11757783_s_at) / Fold change /veh VCAN (11757783_s_at) / RFU DDX43 (11728927_at) / Fold change /veh DDX43 (11728927_at) / RFU KRT8 (11758188_x_at) / Fold change /veh KRT8 (11758188_x_at) / RFU NKD1 (11759106_at) / Fold change /veh NKD1 (11759106_at) / RFU SRD5A1 (11742802_a_at) / Fold change /veh SRD5A1 (11742802_a_at) / RFU TPSAB1 /// TPSB2 (11721975_s_at) / Fold change /veh TPSAB1 /// TPSB2 (11721975_s_at) / RFU GSTM3 (11746129_a_at) / Fold change /veh GSTM3 (11746129_a_at) / RFU IL23R (11737362_x_at) / Fold change /veh IL23R (11737362_x_at) / RFU TMEM51 (11727254_a_at) / Fold change /veh TMEM51 (11727254_a_at) / RFU PIWIL2 (11732686_x_at) / Fold change /veh PIWIL2 (11732686_x_at) / RFU ORM1 (11744905_x_at) / Fold change /veh ORM1 (11744905_x_at) / RFU CCDC152 (11743942_at) / Fold change /veh CCDC152 (11743942_at) / RFU ECM1 (11717891_a_at) / Fold change /veh ECM1 (11717891_a_at) / RFU IL23R (11748794_a_at) / Fold change /veh IL23R (11748794_a_at) / RFU TNFAIP8L3 (11732012_x_at) / Fold change /veh TNFAIP8L3 (11732012_x_at) / RFU MBOAT4 (11741988_at) / Fold change /veh MBOAT4 (11741988_at) / RFU 11764193_at / Fold change /veh 11764193_at / RFU TMEM53 (11763286_at) / Fold change /veh TMEM53 (11763286_at) / RFU MAGEB2 (11727129_at) / Fold change /veh MAGEB2 (11727129_at) / RFU TMEM200A (11744735_a_at) / Fold change /veh TMEM200A (11744735_a_at) / RFU CCDC152 (11751479_a_at) / Fold change /veh CCDC152 (11751479_a_at) / RFU FAM211A (11726209_a_at) / Fold change /veh FAM211A (11726209_a_at) / RFU RGS16 (11746705_a_at) / Fold change /veh RGS16 (11746705_a_at) / RFU VCAN (11755009_s_at) / Fold change /veh VCAN (11755009_s_at) / RFU RHOB (11743442_s_at) / Fold change /veh RHOB (11743442_s_at) / RFU RGS16 (11720943_a_at) / Fold change /veh RGS16 (11720943_a_at) / RFU RGS16 (11720944_at) / Fold change /veh RGS16 (11720944_at) / RFU, VPS4B / Fold change vs veh, VPS4B / RFU, CREB1 / Fold change vs veh, CREB1 / RFU, DNAJC13 / Fold change vs veh, DNAJC13 / RFU, GNAQ / Fold change vs veh, GNAQ / RFU, CDK5R1 / Fold change vs veh, CDK5R1 / RFU, ZRANB3 / Fold change vs veh, ZRANB3 / RFU, CUL4A / Fold change vs veh, CUL4A / RFU, CCNY / Fold change vs veh, CCNY / RFU, UFL1 / Fold change vs veh, UFL1 / RFU, COG3 / Fold change vs veh, COG3 / RFU, DIAPH2 / Fold change vs veh, DIAPH2 / RFU, SKA2 / Fold change vs veh, SKA2 / RFU, AFF3 / Fold change vs veh, AFF3 / RFU, LMF1 / Fold change vs veh, LMF1 / RFU, IPO11 / Fold change vs veh, IPO11 / RFU, DFFB / Fold change vs veh, DFFB / RFU, FOXP1 / Fold change vs veh, FOXP1 / RFU, CARD8 / Fold change vs veh, CARD8 / RFU, STRN3 / Fold change vs veh, STRN3 / RFU, ADK / Fold change vs veh, ADK / RFU, RASSF2 / Fold change vs veh, RASSF2 / RFU, WIPF1 / Fold change vs veh, WIPF1 / RFU, LARP1B / Fold change vs veh, LARP1B / RFU, RASA1 / Fold change vs veh, RASA1 / RFU, RB1 / Fold change vs veh, RB1 / RFU, PPFIA1 / Fold change vs veh, PPFIA1 / RFU, MAT2A / Fold change vs veh, MAT2A / RFU, CCT5 / Fold change vs veh, CCT5 / RFU, WDR92 / Fold change vs veh, WDR92 / RFU, CUX1 / Fold change vs veh, CUX1 / RFU, TTC7A / Fold change vs veh, TTC7A / RFU, TMEM135 / Fold change vs veh, TMEM135 / RFU, DEPTOR / Fold change vs veh, DEPTOR / RFU, CPM / Fold change vs veh, CPM / RFU, DNAJB6 / Fold change vs veh, DNAJB6 / RFU, CACNA2D3 / Fold change vs veh, CACNA2D3 / RFU, DTX4 / Fold change vs veh, DTX4 / RFU, TFCP2 / Fold change vs veh, TFCP2 / RFU, GMCL1 /// GMCL1P1 / Fold change vs veh, GMCL1 /// GMCL1P1 / RFU, AEBP2 / Fold change vs veh, AEBP2 / RFU, SNHG1 /// SNORD22 /// SNORD25 /// SNORD26 /// SNORD27 /// SNORD28 /// SNORD29 /// SNORD31 / Fold change vs veh, SNHG1 /// SNORD22 /// SNORD25 /// SNORD26 /// SNORD27 /// SNORD28 /// SNORD29 /// SNORD31 / Fold change (Aza/veh), C12orf56 (ProbeSet 11735607_a_at) / Fold change (ACY-1035/veh), C12orf56 (ProbeSet 11735607_a_at) / Fold change (Aza/veh), FGFR1OP (ProbeSet 11751329_s_at) / Fold change (ACY-1035/veh), FGFR1OP (ProbeSet 11751329_s_at) / Fold change (Aza/veh), VPS36 (ProbeSet 11739960_a_at) / Fold change (ACY-1035/veh), VPS36 (ProbeSet 11739960_a_at) / RFU SYPL1 (11715823_x_at) / Fold change /veh SYPL1 (11715823_x_at) / RFU IGFBP7 (11715501_s_at) / Fold change /veh IGFBP7 (11715501_s_at) / RFU REEP3 (11722064_at) / Fold change /veh REEP3 (11722064_at) / RFU IGLL1 (11728026_x_at) / Fold change /veh IGLL1 (11728026_x_at): dose or concentration left out as unconfirmed
Conditions: ProbeSet 11723930_at; LIST D

`Nc1ccc(-c2cccs2)cc1NC(=O)c1ccc2c(c1)cc(C1CC1)n2CCN1CCOCC1` [ACY-1035] was tested, and the “Fold change vs veh, CCT5” value was 0.85.

Reference: publication PMC5218480 (PLoS ONE, 2017)
